Legend:
[1] = biological target: Kinesin-1 heavy chain/ Tyrosine-protein kinase receptor RET (Homo sapiens, UniProt P07949); assay: Inhibition of human […]-RET kinase in presence of [gamma33P]-ATP and 10 uM ATP by radiometric HotSpot assay; format: protein assay
[2] = biological target: Proto-oncogene tyrosine-protein kinase receptor Ret (Homo sapiens, UniProt P07949, G810R); assay: Inhibition of human RET kinase-G810R mutant using RRRRRRRRRRRVYSTDYYRLFNPS as substrate in presence of [gamma33P]-ATP and 10 uM ATP by radiometric HotSpot assay
[3] = biological target: Proto-oncogene tyrosine-protein kinase receptor Ret (Homo sapiens, UniProt P07949); assay: Inhibition of human wild type RET kinase using RRRRRRRRRRRVYSTDYYRLFNPS as substrate in presence of [gamma33P]-ATP and 10 uM ATP by radiometric HotSpot assay
[4] = Inhibition of human […]-RET kinase-V804M mutant in presence of [gamma33P]-ATP and 10 uM ATP by radiometric HotSpot assay
[5] = biological target: Proto-oncogene tyrosine-protein kinase receptor Ret (Homo sapiens, UniProt P07949, V804M); assay: Inhibition of human RET kinase-V804M mutant using RRRRRRRRRRRVYSTDYYRLFNPS as substrate in presence of [gamma33P]-ATP and 10 uM ATP by radiometric HotSpot assay
BaF3 [6] = assay: Cytotoxicity against mouse BaF3 cells expressing […]-RET kinase fusion protein assessed as inhibition of cell proliferation incubated for 72 hrs by CCK8 assay; format: functional, cell-based; conditions: BaF3, 72 h
BaF3 [7] = assay: Cytotoxicity against mouse BaF3 cells expressing […]-RET kinase-G810R mutant fusion protein assessed as inhibition of cell proliferation incubated for 72 hrs by CCK8 assay; format: functional, cell-based; conditions: BaF3, 72 h
BaF3 [8] = assay: Cytotoxicity against mouse BaF3 cells expressing […]-RET kinase-V804L mutant fusion protein assessed as inhibition of cell proliferation incubated for 72 hrs by CCK8 assay; format: functional, cell-based; conditions: BaF3, 72 h
BaF3 [9] = assay: Cytotoxicity against mouse BaF3 cells expressing […]-RET kinase-G810C mutant fusion protein assessed as inhibition of cell proliferation incubated for 72 hrs by CCK8 assay; format: functional, cell-based; conditions: BaF3, 72 h
BaF3 [10] = assay: Cytotoxicity against mouse BaF3 cells expressing […]-RET kinase-G810S mutant fusion protein assessed as inhibition of cell proliferation incubated for 72 hrs by CCK8 assay; format: functional, cell-based; conditions: BaF3, 72 h
BaF3 [11] = assay: Cytotoxicity against mouse BaF3 cells expressing […]-RET kinase-G810A mutant fusion protein assessed as inhibition of cell proliferation incubated for 72 hrs by CCK8 assay; format: functional, cell-based; conditions: BaF3, 72 h
[12] = system: Proto-oncogene tyrosine-protein kinase receptor Ret (Homo sapiens), P07949 [G810R]; assay: Inhibition of human RET kinase-G810R mutant assessed as residual activity at 0.1 uM using RRRRRRRRRRRVYSTDYYRLFNPS as substrate in presence of [gamma33P]-ATP and 10 uM ATP by radiometric HotSpot assay
BaF3 [13] = assay: Cytotoxicity against mouse BaF3 cells expressing […]-RET kinase-V804M mutant fusion protein assessed as inhibition of cell proliferation incubated for 72 hrs by CCK8 assay; format: functional, cell-based; conditions: BaF3, 72 h
[14] = system: Proto-oncogene tyrosine-protein kinase receptor Ret (Homo sapiens), P07949 [V804M]; assay: Inhibition of human RET kinase-V804M mutant at 0.1 uM using RRRRRRRRRRRVYSTDYYRLFNPS as substrate in presence of [gamma33P]-ATP and 10 uM ATP by radiometric HotSpot assay relative to control
Proto-oncogene tyrosine-protein kinase receptor Ret (Homo sapiens), P07949 [V804M], sequence (P07949 whole entry V804M): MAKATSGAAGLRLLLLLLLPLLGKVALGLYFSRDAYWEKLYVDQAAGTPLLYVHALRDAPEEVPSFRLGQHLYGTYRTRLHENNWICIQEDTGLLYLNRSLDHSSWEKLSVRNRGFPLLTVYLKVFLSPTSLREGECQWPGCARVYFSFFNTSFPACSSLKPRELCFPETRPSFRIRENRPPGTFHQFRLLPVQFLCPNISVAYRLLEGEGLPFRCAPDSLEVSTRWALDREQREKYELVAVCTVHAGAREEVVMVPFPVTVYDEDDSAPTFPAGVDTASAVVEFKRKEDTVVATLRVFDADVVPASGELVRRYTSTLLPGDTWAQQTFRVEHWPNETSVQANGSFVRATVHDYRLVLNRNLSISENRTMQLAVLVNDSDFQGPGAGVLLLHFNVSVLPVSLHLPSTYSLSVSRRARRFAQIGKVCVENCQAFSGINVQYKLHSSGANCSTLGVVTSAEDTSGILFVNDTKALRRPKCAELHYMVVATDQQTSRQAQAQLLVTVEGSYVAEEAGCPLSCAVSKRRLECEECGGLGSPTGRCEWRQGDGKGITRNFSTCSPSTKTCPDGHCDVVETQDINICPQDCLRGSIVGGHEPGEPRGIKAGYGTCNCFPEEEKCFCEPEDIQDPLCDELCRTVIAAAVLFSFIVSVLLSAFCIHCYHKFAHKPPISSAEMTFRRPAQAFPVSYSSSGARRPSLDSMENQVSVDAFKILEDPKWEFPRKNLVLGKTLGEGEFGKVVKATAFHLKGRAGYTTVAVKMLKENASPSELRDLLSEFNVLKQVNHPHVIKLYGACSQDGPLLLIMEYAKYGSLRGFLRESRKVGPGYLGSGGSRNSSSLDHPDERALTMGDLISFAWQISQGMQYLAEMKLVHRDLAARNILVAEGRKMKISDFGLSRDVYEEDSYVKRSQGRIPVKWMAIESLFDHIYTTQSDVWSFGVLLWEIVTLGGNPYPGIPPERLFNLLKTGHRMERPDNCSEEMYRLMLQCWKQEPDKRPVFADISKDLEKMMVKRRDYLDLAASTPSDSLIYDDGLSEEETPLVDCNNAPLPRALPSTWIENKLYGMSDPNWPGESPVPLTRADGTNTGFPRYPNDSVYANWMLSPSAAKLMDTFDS

Proto-oncogene tyrosine-protein kinase receptor Ret (Homo sapiens, UniProt P07949, V804M), sequence (P07949 29-1114 V804M limits assumed): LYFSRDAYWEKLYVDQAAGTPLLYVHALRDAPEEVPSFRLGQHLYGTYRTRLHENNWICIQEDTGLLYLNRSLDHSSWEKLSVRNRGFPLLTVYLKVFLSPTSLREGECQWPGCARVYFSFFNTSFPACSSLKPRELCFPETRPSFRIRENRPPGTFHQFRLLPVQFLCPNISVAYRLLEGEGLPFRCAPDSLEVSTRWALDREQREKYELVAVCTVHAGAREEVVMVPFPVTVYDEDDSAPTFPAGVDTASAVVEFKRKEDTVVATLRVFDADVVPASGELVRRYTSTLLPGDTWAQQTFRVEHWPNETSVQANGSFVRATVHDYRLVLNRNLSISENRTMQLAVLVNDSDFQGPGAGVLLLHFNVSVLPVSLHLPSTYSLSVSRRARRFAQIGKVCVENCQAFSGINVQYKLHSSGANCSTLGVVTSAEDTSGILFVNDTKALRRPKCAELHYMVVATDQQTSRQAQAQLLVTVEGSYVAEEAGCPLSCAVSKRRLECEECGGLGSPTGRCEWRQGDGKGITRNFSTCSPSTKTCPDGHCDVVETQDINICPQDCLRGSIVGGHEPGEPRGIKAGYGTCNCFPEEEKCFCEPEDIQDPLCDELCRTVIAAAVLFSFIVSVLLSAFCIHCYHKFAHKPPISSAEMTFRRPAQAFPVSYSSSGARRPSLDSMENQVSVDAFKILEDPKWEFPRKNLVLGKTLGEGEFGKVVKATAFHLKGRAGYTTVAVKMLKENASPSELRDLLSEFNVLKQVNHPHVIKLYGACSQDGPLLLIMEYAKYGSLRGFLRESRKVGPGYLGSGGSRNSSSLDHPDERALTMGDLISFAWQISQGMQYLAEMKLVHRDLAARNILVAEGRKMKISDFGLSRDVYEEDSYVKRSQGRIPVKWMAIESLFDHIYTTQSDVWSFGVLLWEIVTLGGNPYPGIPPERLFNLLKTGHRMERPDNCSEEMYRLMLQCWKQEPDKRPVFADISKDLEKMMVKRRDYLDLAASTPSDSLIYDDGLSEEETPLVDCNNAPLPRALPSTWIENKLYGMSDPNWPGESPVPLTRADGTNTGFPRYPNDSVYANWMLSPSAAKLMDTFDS
Kinesin-1 heavy chain/ Tyrosine-protein kinase receptor RET, sequence (P07949 whole entry): as the sequence (P07949 whole entry V804M) above, with M804V counted along it
Kinesin-1 heavy chain/ Tyrosine-protein kinase receptor RET, sequence (P33176 whole entry, further chain): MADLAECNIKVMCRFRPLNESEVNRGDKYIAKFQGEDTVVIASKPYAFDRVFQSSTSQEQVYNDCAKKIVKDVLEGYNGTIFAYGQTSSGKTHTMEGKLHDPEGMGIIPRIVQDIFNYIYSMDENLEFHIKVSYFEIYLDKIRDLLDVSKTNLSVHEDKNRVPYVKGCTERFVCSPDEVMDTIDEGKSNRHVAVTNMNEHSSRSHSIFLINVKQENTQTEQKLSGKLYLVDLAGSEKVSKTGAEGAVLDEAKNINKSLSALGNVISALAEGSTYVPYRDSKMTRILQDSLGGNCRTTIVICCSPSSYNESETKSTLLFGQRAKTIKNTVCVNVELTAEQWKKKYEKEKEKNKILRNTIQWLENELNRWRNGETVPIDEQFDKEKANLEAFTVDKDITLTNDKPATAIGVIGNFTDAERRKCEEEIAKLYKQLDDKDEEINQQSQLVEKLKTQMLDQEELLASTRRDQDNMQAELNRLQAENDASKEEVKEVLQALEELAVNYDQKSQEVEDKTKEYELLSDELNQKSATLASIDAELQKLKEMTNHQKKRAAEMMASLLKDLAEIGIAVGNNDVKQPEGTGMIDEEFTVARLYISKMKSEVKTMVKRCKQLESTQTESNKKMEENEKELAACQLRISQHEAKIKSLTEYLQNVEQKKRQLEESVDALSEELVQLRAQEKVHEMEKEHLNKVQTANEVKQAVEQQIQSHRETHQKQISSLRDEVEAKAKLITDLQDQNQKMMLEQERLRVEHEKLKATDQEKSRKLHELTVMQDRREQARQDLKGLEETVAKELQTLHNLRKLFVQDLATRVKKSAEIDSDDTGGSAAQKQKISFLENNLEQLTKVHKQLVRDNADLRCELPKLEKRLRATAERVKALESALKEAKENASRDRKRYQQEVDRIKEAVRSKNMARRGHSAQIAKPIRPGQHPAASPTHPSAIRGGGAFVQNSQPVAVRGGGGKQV
Proto-oncogene tyrosine-protein kinase receptor Ret (Homo sapiens, UniProt P07949), sequence (P07949 whole entry): as the sequence (P07949 whole entry V804M) above, with M804V counted along it
Proto-oncogene tyrosine-protein kinase receptor Ret (Homo sapiens, UniProt P07949, G810R), sequence (P07949 29-1114 G810R limits assumed): as the sequence (P07949 29-1114 V804M limits assumed) above, with M776V, G782R counted along it
Proto-oncogene tyrosine-protein kinase receptor Ret (Homo sapiens), P07949 [G810R], sequence (P07949 whole entry G810R, the tested form may be a part): as the sequence (P07949 whole entry V804M) above, with M804V, G810R counted along it

Compound: Cc1ccc(C(=O)Nc2ccc(CN3CCN(C)CC3)c(C(F)(F)F)c2)cc1C#Cc1cnc2ccc(OCCNC(C)C)nn12
- IC50 [1]: 1.2 nM
- IC50 [2]: 25.3 nM
- IC50 [3]: 3.6 nM
- IC50 [4]: 19.4 nM
- IC50 [5]: < 0.5 nM

Compound: CCOC(=O)c1nc2ccc(NCCN3CCCCC3)nn2c1C#Cc1cc(C(=O)Nc2cc(-n3cnc(C)c3)cc(C(C)(C)C#N)c2)c(NCCN2CCCCC2)cc1C
- IC50 (BaF3 [6]): 900 nM
- IC50 (BaF3 [7]): 1200 nM
- IC50 (BaF3 [8]): 1600 nM
- IC50 (BaF3 [9]): 1700 nM
- IC50 (BaF3 [10]): 1600 nM
- IC50 (BaF3 [11]): 1200 nM

Compound: COc1ccc(Nc2ccc3ncc(C#Cc4cc(C(=O)Nc5cc(CN6CCN(C)CC6)cc(C(F)(F)F)c5)ccc4C)n3n2)cc1
- IC50 [2]: 89.8 nM
- Activity [12]: 46.6%
- IC50 [4]: 137 nM
- IC50 [5]: 0.9 nM

Compound: Cc1cn(-c2cc(NC(=O)c3cc(C#Cc4cnc5ccc(OCCN6CCOCC6)nn45)c(C)cc3F)cc(C(C)(C)C#N)c2)cn1
- IC50 (BaF3 [6]): 100 nM
- IC50 (BaF3 [7]): 400 nM
- IC50 [1]: 43.7 nM
- IC50 [2]: 1300 nM
- IC50 [3]: 345 nM
- IC50 (BaF3 [13]): 1600 nM
- IC50 [4]: 622 nM
- IC50 (BaF3 [8]): 1800 nM
- IC50 (BaF3 [9]): 600 nM
- IC50 [5]: 7.4 nM
- IC50 (BaF3 [10]): 100 nM
- IC50 (BaF3 [11]): 50 nM

Compound: CCOC(=O)c1nc2ccc(Nc3cc(C)[nH]n3)nn2c1C#Cc1cc(C(=O)Nc2cc(-n3cnc(C)c3)cc(C(F)(F)F)c2)ccc1C
- IC50 [1]: > 2000 nM
- IC50 [2]: > 2000 nM
- IC50 [3]: 921 nM
- IC50 [4]: > 2000 nM
- IC50 [5]: 102 nM

Compound: Cc1ccc(C(=O)Nc2ccc(CN3CCN(C)CC3)c(C(F)(F)F)c2)cc1C#Cc1cnc2ccc(OCCN3CCOCC3)nn12
- IC50 [1]: 129 nM
- IC50 [2]: 11 nM
- IC50 [3]: 478 nM
- IC50 [4]: 84.5 nM
- IC50 [5]: < 0.5 nM

Compound: COc1ccc(CN2C3CC2CN(c2ccc(-c4cc(OCC(C)(C)O)cn5ncc(C#N)c45)cn2)C3)cn1 [SELPERCATINIB]
- IC50 (BaF3 [6]): 10 nM
- IC50 (BaF3 [7]): 2100 nM
- IC50 (BaF3 [13]): 100 nM
- IC50 (BaF3 [8]): 20 nM
- IC50 (BaF3 [9]): 5800 nM
- IC50 (BaF3 [10]): 400 nM
- IC50 (BaF3 [11]): 260 nM

Compound: Cc1ccc(C(=O)Nc2cc(CN3CCN(C)CC3)cc(C(F)(F)F)c2)cc1C#Cc1cnc2ccc(N3CCOCC3)nn12
- IC50 [2]: 41.3 nM
- Activity [12]: 26.4%
- IC50 [4]: 47.8 nM
- IC50 [5]: 0.1 nM

Compound: Cc1ccc(C(=O)Nc2cc(CN3CCN(C)CC3)cc(C(F)(F)F)c2)cc1C#Cc1cnc2ccc(Cl)nn12
- IC50 [2]: 19.8 nM
- inhibition [14]: 100%
- IC50 [4]: 281 nM
- IC50 [5]: < 0.5 nM

Compound: CCOC(=O)c1nc2n(c1C#Cc1cc(C(=O)Nc3cc(-n4cnc(C)c4)cc(C(F)(F)F)c3)ccc1C)NC(NC1CC1)C=C2 (stereo not drawn)
- IC50 (BaF3 [6]): 3000 nM
- IC50 (BaF3 [7]): 3800 nM
- IC50 (BaF3 [8]): 3300 nM
- IC50 (BaF3 [9]): 2900 nM
- IC50 (BaF3 [10]): 3000 nM
- IC50 (BaF3 [11]): 3800 nM

Source: ChEMBL document CHEMBL5614446, “Side Chain Investigation of Imidazopyridazine as a Hinge Binder for Targeting Actionable Mutations of RET Kinase” (ACS Med Chem Lett, 2024)
